# Reference: patent US20020169111A1, “Reversal of multidrug resistance in human colon carcinoma cells” (American Cyanamid Comany, priority 1998, published 2002)
# Read-outs that look alike come from different tables or passages of the source.
# Test system: S1-M1-3.2 cells
# Conditions: for Toxicity (>20%): compound alone, concentration that causes greater than 20% cell death of S1-M1-3.2 cells; for IC50: read-out: IC50 (μM), resensitizing S1-M1-3.2 cells to mitoxantrone, with 3.2 μM mitoxantrone, 50% cancer cell death; for Per Cent Survival Alone: 3 days; for Difference Score: survival alone minus survival with 3.2 μM mitoxantrone
# Description: One of the first reported molecules with reversing activity was verapamil, a calcium channel blocker. […] Cells were plated into 96-well dishes (100 μl/well) in growth medium supplemented with 5% FBS. […] Reversal agents were tested from 0.1-80 μM (triplicate points per dose). In parallel wells, cells were grown in the presence of the reversal agent alone.
# The Difference Score is the difference in the percentage of cells surviving when the drug was given alone minus the percentage of cells surviving when the drug was given along with the antitumor agent.
# Cell survival was estimated using the Sulforhodamine (SRB) assay.
# [1] = S1-M1-3.2 cells, drug 0.1 μM alone
# [2] = S1-M1-3.2 cells, drug 0.5 μM alone
# [3] = S1-M1-3.2 cells, drug 1 μM alone
# [4] = S1-M1-3.2 cells, drug 5 μM alone
# [5] = S1-M1-3.2 cells, drug 10 μM alone
# [6] = S1-M1-3.2 cells, drug 20 μM alone
# [7] = S1-M1-3.2 cells, drug 40 μM alone
# [8] = S1-M1-3.2 cells, drug 80 μM alone
smiles,measurement,setting,value
"O=C1[C@@H]2Cc3c([nH]c4ccccc34)[C@@H](CCCCCc3ccccc3)N2C(=O)[C@@H]2CCCN12 [Example 23a, (5aS,12R,14aS)-12-(5-phenylpentyl)-1,2,3,5a,6,11,12,14a-octahydro-5H,14H-pyrrolo[1″,2″:4′,5′]pyrazino[2′,1′:6,1]pyrido[3,4-b]indole-5,14-dione]",Toxicity (>20%),,7.5 µM
same,IC50,,0.3 µM
"CC(C)C[C@@H]1c2[nH]c3ccccc3c2C[C@H]2C(=O)N3CC[C@H]3C(=O)N12 [Example 22a, (4aS,11R,13aS)-11-isobutyl-1,4a,5,10,11,13a-hexahydro-4H-azeto[1″,2″:4′,5′]pyrazino[2′,1′:6,1]pyrido[3,4-b]indole-4,13(2H)-dione]",Toxicity (>20%),,80.0 µM
same,IC50,,15 µM
"CC(C)C[C@H]1c2[nH]c3ccccc3c2C[C@H]2C(=O)N3CCC[C@H]3C(=O)N21 [Example 14b, (5aS,12S,14aS)-12-isobutyl-1,2,3,5a,6,11,12,14a-octahydro-5H,14H-pyrrolo[1″,2″:4′,5′]pyrazino[2′,1′:6,1]pyrido[3,4-b]indole-5,14-dione]",Toxicity (>20%),,35.0 µM
same,IC50,,1 µM
"O=C1[C@@H]2Cc3c([nH]c4ccccc34)CN2C(=O)[C@@H]2CCCN12 [Example 25, (5aS,14aS)-1,2,3,5a,6,11,12,14a-octahydro-5H,14H-pyrrolo[1″,2″:4′,5′]pyrazino[2′,1′:6,1]pyrido[3,4-b]indole-5,14-dione]",Toxicity (>20%),,>80 µM
same,IC50,,15 µM
"COc1ccc(CCN(C)CCCC(C#N)(c2ccc(OC)c(OC)c2)C(C)C)cc1OC (stereo not shown) [Verapamil, reference compound]",reversal activity in S1-M1-3.2 cells (in words),,not reversed
same,Per Cent Survival with 3.2 μM mitoxantrone,"S1-M1-3.2 cells, drug 0.1 μM",98 ± 0 Per Cent
same,Per Cent Survival Alone,[1],100 ± 1 Per Cent
same,Per Cent Survival with 3.2 μM mitoxantrone,"S1-M1-3.2 cells, drug 0.5 μM",98 ± 1 Per Cent
same,Per Cent Survival Alone,[2],99 ± 1 Per Cent
same,Per Cent Survival with 3.2 μM mitoxantrone,"S1-M1-3.2 cells, drug 1 μM",98 ± 1 Per Cent
same,Per Cent Survival Alone,[3],97 ± 2 Per Cent
same,Per Cent Survival with 3.2 μM mitoxantrone,"S1-M1-3.2 cells, drug 5 μM",97 ± 0 Per Cent
same,Per Cent Survival Alone,[4],98 ± 5 Per Cent
same,Per Cent Survival with 3.2 μM mitoxantrone,"S1-M1-3.2 cells, drug 10 μM",94 ± 0 Per Cent
same,Per Cent Survival Alone,[5],103 ± 4 Per Cent
same,Per Cent Survival with 3.2 μM mitoxantrone,"S1-M1-3.2 cells, drug 20 μM",93 ± 2 Per Cent
same,Per Cent Survival Alone,[6],99 ± 4 Per Cent
same,Per Cent Survival with 3.2 μM mitoxantrone,"S1-M1-3.2 cells, drug 40 μM",83 ± 3 Per Cent
same,Per Cent Survival Alone,[7],93 ± 6 Per Cent
same,Per Cent Survival with 3.2 μM mitoxantrone,"S1-M1-3.2 cells, drug 80 μM",58 ± 4 Per Cent
same,Per Cent Survival Alone,[8],80 ± 24 Per Cent
"CC(C)CC1c2[nH]c3ccccc3c2CC2C(=O)N3CCCCC3C(=O)N21 [Example 20a, (6aS,13R,15aR)-13-isobutyl-1,2,3,4,6a,7,12,13,15a-nonahydro-6H,15H-pyrido[1″,2″:4′,5′]pyrazino[2′,1′:6,1]pyrido[3,4-b]indole-6H,15H-dione]",Toxicity (>20%),,80.0 µM
same,IC50,,30 µM
"CC(=O)NCCC[C@H]1c2[nH]c3ccccc3c2C[C@H]2C(=O)N3CCC[C@H]3C(=O)N21 [Example 30, N-{3-[(5aS,12S,14aS)-5,14-dioxo-2,3,5a,6,11,12,14,14a-octahydro-1H,5H-pyrrolo[1″,2″:4′,5′]pyrazino[2′,1′:6,1]pyrido[3,4-b]indol-12-yl]propyl}Acetamide]",Toxicity (>20%),,>80 µM
same,IC50,,> 80 µM
"C[C@H]1c2[nH]c3ccccc3c2C[C@H]2C(=O)N3CCC[C@H]3C(=O)N21 [Example 26, (5aS,12S,14aS)-12-methyl-1,2,3,5a,6,11,12,14a-octahydro-5H,14H-pyrrolo[1″,2″:4′,5′]pyrazino[2′,1′:6,1]pyrido[3,4-b]indole-5,14-dione]",Toxicity (>20%),,>80.0 µM
same,IC50,,7 µM
"CC(C)C[C@H]1c2[nH]c3ccccc3c2C[C@@H]2C(=O)N3CCC[C@H]3C(=O)N21 [Example 15b, (5aR,12S,14aS)-12-isobutyl-1,2,3,5a,6,11,12,14a-octahydro-5H,14H-pyrrolo[1″,2″:4′,5′]pyrazino[2′,1′:6,1]pyrido[3,4-b]indole-5,14-dione]",Toxicity (>20%),,>80.0 µM
same,IC50,,15 µM
"CC(C)CC1c2[nH]c3ccccc3c2CC2C(=O)N3CCCCC3C(=O)N21 [Example 19a, (6aR,13R,15aS)-13-isobutyl-1,2,3,4,6a,7,12,13,15a-nonahydro-6H,15H-pyrido[1″,2″:4′,5′]pyrazino[2′,1′:6,1]pyrido[3,4-b]indole-6H,15H-dione]",Toxicity (>20%),,50.0 µM
same,IC50,,11 µM
"CC(C)CC1c2[nH]c3ccccc3c2CC2C(=O)N3CCCCC3C(=O)N21 [Example 18a, (6aS,13R,15aS)-13-isobutyl-1,2,3,4,6a,7,12,13,15a-nonahydro-6H,15H-pyrido[1″,2″:4′,5′]pyrazino[2′,1′:6,1]pyrido[3,4-b]indole-6H,15H-dione]",Toxicity (>20%),,15.0 µM
same,IC50,,50 µM
"CC(C)C[C@H]1c2[nH]c3ccccc3c2C[C@H]2C(=O)N3CC[C@H]3C(=O)N21 [Example 22b, (4aS,11S,13aS)-11-isobutyl-1,4a,5,10,11,13a-hexahydro-4H-azeto[1″,2″:4′,5′]pyrazino[2′,1′:6,1]pyrido[3,4-b]indole-4,13(2H)-dione]",Toxicity (>20%),,>80.0 µM
same,IC50,,2.5 µM
"O=C1[C@@H]2Cc3c([nH]c4ccccc34)[C@H](CCCCCc3ccccc3)N2C(=O)[C@@H]2CCCN12 [Example 23b, (5aS,12S,14aS)-12-(5-phenylpentyl)-1,2,3,5a,6,11,12,14a-octahydro-5H,14H-pyrrolo[1″,2″:4′,5′]pyrazino[2′,1′:6,1]pyrido[3,4-b]indole-5,14-dione]",Toxicity (>20%),,>80 µM
same,IC50,,3 µM
"CC(C)CC1c2[nH]c3ccccc3c2CC2C(=O)N3CCCCC3C(=O)N21 [Example 21b, (6aR,13S,15aR)-13-isobutyl-1,2,3,4,6a,7,12,13,15a-nonahydro-6H,15H-pyrido[1″,2″:4′,5′]pyrazino[2′,1′:6,1]pyrido[3,4-b]indole-6H,15H-dione]",Toxicity (>20%),,>80.0 µM
same,IC50,,6 µM
CC(C)=C[C@H]1c2[nH]c3ccccc3c2C[C@H]2C(=O)N3CCC[C@H]3C(=O)N21 [Example 27],Toxicity (>20%),,>80 µM
same,IC50,,2.5 µM
COc1ccc2c3c(n(CC=C(C)C)c2c1)[C@H](C=C(C)C)N1C(=O)[C@@H]2CCCN2C(=O)[C@]1(O)[C@H]3O [Fumitremorgin B],concentration giving 40% cell death (compound alone),S1-M1-3.2 cells,20 µM
same,"activity in the reversal assay compared to FTC, fold lower","S1-M1-3.2 cells, Table 7 versus Table 8",14 fold
same,Per Cent Survival with 3.2 μM mitoxantrone,"S1-M1-3.2 cells, drug 0.1 μM",91 ± 5 Per Cent
same,Per Cent Survival Alone,[1],94 ± 1 Per Cent
same,Difference Score,"S1-M1-3.2 cells, drug 0.1 μM",3
same,Per Cent Survival with 3.2 μM mitoxantrone,"S1-M1-3.2 cells, drug 0.5 μM",90 ± 3 Per Cent
same,Per Cent Survival Alone,[2],95 ± 2 Per Cent
same,Difference Score,"S1-M1-3.2 cells, drug 0.5 μM",5
same,Per Cent Survival with 3.2 μM mitoxantrone,"S1-M1-3.2 cells, drug 1 μM",87 ± 1 Per Cent
same,Per Cent Survival Alone,[3],93 ± 0 Per Cent
same,Difference Score,"S1-M1-3.2 cells, drug 1 μM",6
same,Per Cent Survival with 3.2 μM mitoxantrone,"S1-M1-3.2 cells, drug 5 μM",51 ± 4 Per Cent
same,Per Cent Survival Alone,[4],90 ± 2 Per Cent
same,Difference Score,"S1-M1-3.2 cells, drug 5 μM",39
same,Per Cent Survival with 3.2 μM mitoxantrone,"S1-M1-3.2 cells, drug 10 μM",35 ± 1 Per Cent
same,Per Cent Survival Alone,[5],91 ± 4 Per Cent
same,Difference Score,"S1-M1-3.2 cells, drug 10 μM",56
same,Per Cent Survival with 3.2 μM mitoxantrone,"S1-M1-3.2 cells, drug 20 μM",29 ± 1 Per Cent
same,Per Cent Survival Alone,[6],59 ± 10 Per Cent
same,Difference Score,"S1-M1-3.2 cells, drug 20 μM",30
same,Per Cent Survival with 3.2 μM mitoxantrone,"S1-M1-3.2 cells, drug 40 μM",20 ± 2 Per Cent
same,Per Cent Survival Alone,[7],41 ± 7 Per Cent
same,Difference Score,"S1-M1-3.2 cells, drug 40 μM",21
same,Per Cent Survival with 3.2 μM mitoxantrone,"S1-M1-3.2 cells, drug 80 μM",10 ± 1 Per Cent
same,Per Cent Survival Alone,[8],16 ± 2 Per Cent
same,Difference Score,"S1-M1-3.2 cells, drug 80 μM",6
same,Toxicity (>20%),,15.0 µM
same,IC50,,5 µM
"CC(C)CC1c2[nH]c3ccccc3c2CC2C(=O)N3CCCCC3C(=O)N21 [Example 19b, (6aR,13S,15aS-13-isobutyl-1,2,3,4,6a,7,12,13,15a-nonahydro-6H,15H-pyrido[1″,2″:4′,5′]pyrazino[2′,1′:6,1]pyrido[3,4-b]indole-6H,15H-dione]",Toxicity (>20%),,>80.0 µM
same,IC50,,4 µM
"CC(C)C[C@@H]1c2[nH]c3ccccc3c2C[C@H]2C(=O)N3CCC[C@H]3C(=O)N12 [Example 14a, (5aS,12R,14aS)-12-isobutyl-1,2,3,5a,6,11,12,14a-octahydro-5H,14H-pyrrolo[1″,2″:4′,5′]pyrazino[2′,1′:6,1]pyrido[3,4-b]indole-5,14-dione]",Toxicity (>20%),,80.0 µM
same,IC50,,80 µM
"CC(C)C[C@H]1c2[nH]c3ccccc3c2C[C@@H]2C(=O)N3CCC[C@@H]3C(=O)N21 [Example 17b, (5aR,12S,14aR)-12-isobutyl-1,2,3,5a,6,11,12,14a-octahydro-5H,14H-pyrrolo[1″,2″:4′,5′]pyrazino[2′,1′:6,1]pyrido[3,4-b]indole-5,14-dione]",Toxicity (>20%),,>80.0 µM
same,IC50,,3.5 µM
